Data from PMC10364322, “Evaluation of chronic drug-induced electrophysiological and cytotoxic effects using human-induced pluripotent stem cell-derived cardiomyocytes (hiPSC-CMs)” (Frontiers in Pharmacology, 2023).

Legend:
[1] = system: hiPSC-CMs (iCell-Cardiomyocytes^2); test: MEA impedance (cytotoxicity readout) in hiPSC-CMs
[2] = cited from earlier work; for Free Cmax: free therapeutic Cmax in humans, ref FDA-approved drug packages, PharmaPendium
[3] = all concentrations tested, up to 96 h

| Structure (SMILES) | Imp (impedance), % change from baseline ([1]; 0.3 µM, 2h) [%] | Imp (impedance), % change from baseline ([1]; 0.3 µM, 24h) [%] | Imp (impedance), % change from baseline ([1]; 0.3 µM, 48h) [%] | Imp (impedance), % change from baseline ([1]; 0.3 µM, 72h) [%] | Imp (impedance), % change from baseline ([1]; 0.3 µM, 96h) [%] | Imp (impedance), % change from baseline ([1]; 1 µM, 2h) [%] | Imp (impedance), % change from baseline ([1]; 1 µM, 24h) [%] | Imp (impedance), % change from baseline ([1]; 1 µM, 48h) [%] | Imp (impedance), % change from baseline ([1]; 1 µM, 72h) [%] | Imp (impedance), % change from baseline ([1]; 1 µM, 96h) [%] | Imp (impedance), % change from baseline ([1]; 3 µM, 72h) [%] | Imp (impedance), % change from baseline ([1]; 3 µM, 96h) [%] | Imp (impedance), % change from baseline ([1]; 3 µM, 2h) [%] | Imp (impedance), % change from baseline ([1]; 3 µM, 24h) [%] | Imp (impedance), % change from baseline ([1]; 3 µM, 48h) [%] | Imp (impedance), % change from baseline ([1]; 10 µM, 2h) [%] | Imp (impedance), % change from baseline ([1]; 10 µM, 24h) [%] | Imp (impedance), % change from baseline ([1]; 10 µM, 48h) [%] | Imp (impedance), % change from baseline ([1]; 10 µM, 72h) [%] | Free Cmax [2] [nM] | other results |
| --- | --- | --- | --- | --- | --- | --- | --- | --- | --- | --- | --- | --- | --- | --- | --- | --- | --- | --- | --- | --- | --- |
| COc1nc(N)nc2c1ncn2[C@@H]1O[C@H](COP(=O)(N[C@@H](C)C(=O)OCC(C)(C)C)Oc2cccc3ccccc23)[C@@H](O)[C@@]1(C)O (stereo partly shown) [BMS-986094] | -4±2 | -3±2 | -6±3 | -8±3 | -18±6 | -1±2 | -1±4 | -5±3 | -16±2 | -29±4 | -19±6 | -38±5 | 3±5 | 1±2 | -5±3 | 2±1 | 4±4 | 2±10 | -11±12 | – | Imp (impedance), % change from baseline ([1]; 10 µM, 96h): -41±20 % |
| C[C@H](CS)C(=O)N1CCC[C@H]1C(=O)O [Captopril] | – | – | – | – | – | 7±5 | -7±1 | -9±4 | -2±3 | -4±5 | 1±4 | -1±4 | 9±3 | -6±3 | -7±4 | 9±3 | -5±3 | -10±5 | -1±5 | 2300 | Imp (impedance), % change from baseline ([1]; 10 µM, 96h): -4±5%; Imp (impedance), % change from baseline ([1]; 30 µM, 2h): 8±2%; Imp (impedance), % change from baseline ([1]; 30 µM, 24h): -4±3%; Imp (impedance), % change from baseline ([1]; 30 µM, 48h): -8±2%; Imp (impedance), % change from baseline ([1]; 30 µM, 72h): 1±5%; Imp (impedance), % change from baseline ([1]; 30 µM, 96h): -4±6%; effect on impedance [1, 3]: did not have a significant effect on impedance |
| COc1cccc2c1C(=O)c1c(O)c3c(c(O)c1C2=O)C[C@@](O)(C(=O)CO)C[C@@H]3O[C@H]1C[C@H](N)[C@H](O)[C@H](C)O1 [Doxorubicin] | -1±1 | -23±6 | -47±6 | -70±7 | -81±7 | -1±2 | -56±4 | -86±1 | -89±2 | -89±2 | -87±0 | -88±1 | -2±0 | -56±5 | -85±2 | – | – | – | – | 7400 | Imp (impedance), % change from baseline ([1]; 0.1 µM, 2h): 3±5%; Imp (impedance), % change from baseline ([1]; 0.1 µM, 24h): -8±5%; Imp (impedance), % change from baseline ([1]; 0.1 µM, 48h): -20±4%; Imp (impedance), % change from baseline ([1]; 0.1 µM, 72h): -27±4%; Imp (impedance), % change from baseline ([1]; 0.1 µM, 96h): -30±8%; decrease in the impedance signal ([1]; 0.3 µM, 72h): ~70% |
| C#Cc1cccc(Nc2ncnc3cc(OCCOC)c(OCCOC)cc23)c1 [Erlotinib] | 0±3 | -5±3 | -5±4 | -5±6 | -3±6 | 1±2 | -6±3 | -2±5 | -3±5 | 1±9 | -2±4 | 0±6 | 1±3 | -6±2 | -1±5 | 5±4 | -17±2 | -13±3 | -13±3 | 3900 | effect on impedance ([1]; 10 µM (highest concentration)): borderline decrease in impedance, which was statistically and physiologically significant only at the 24 h time point; Imp (impedance), % change from baseline ([1]; 10 µM, 96h): -10±2% |
| Cc1cn(-c2cc(NC(=O)c3ccc(C)c(Nc4nccc(-c5cccnc5)n4)c3)cc(C(F)(F)F)c2)cn1 [Nilotinib] | -1±3 | -11±5 | 3±7 | -2±4 | -1±5 | 4±7 | -8±6 | 13±17 | 2±5 | 4±14 | – | – | – | – | – | – | – | – | – | 100 | Imp (impedance), % change from baseline ([1]; 0.01 µM, 2h): -2±3%; Imp (impedance), % change from baseline ([1]; 0.01 µM, 24h): -14±3%; Imp (impedance), % change from baseline ([1]; 0.01 µM, 48h): -4±4%; Imp (impedance), % change from baseline ([1]; 0.01 µM, 72h): -4±15%; Imp (impedance), % change from baseline ([1]; 0.01 µM, 96h): -3±15%; Imp (impedance), % change from baseline ([1]; 0.1 µM, 2h): -2±3%; Imp (impedance), % change from baseline ([1]; 0.1 µM, 24h): -12±3%; Imp (impedance), % change from baseline ([1]; 0.1 µM, 48h): 4±10%; Imp (impedance), % change from baseline ([1]; 0.1 µM, 72h): -6±4%; Imp (impedance), % change from baseline ([1]; 0.1 µM, 96h): -1±5%; effect on impedance [1, 3]: without relevant changes to impedance |
| N=C(N)c1ccc(OCCCCCOc2ccc(C(=N)N)cc2)cc1 [Pentamidine] | 6±2 | -3±4 | -4±4 | -8±5 | -5±3 | 5±2 | -4±3 | -6±4 | -13±3 | -18±5 | -28±8 | -42±9 | 5±2 | -4±2 | -7±6 | – | – | – | – | 200 | Imp (impedance), % change from baseline ([1]; 0.1 µM, 2h): 6±3%; Imp (impedance), % change from baseline ([1]; 0.1 µM, 24h): -2±5%; Imp (impedance), % change from baseline ([1]; 0.1 µM, 48h): -5±4%; Imp (impedance), % change from baseline ([1]; 0.1 µM, 72h): -6±3%; Imp (impedance), % change from baseline ([1]; 0.1 µM, 96h): 1±6%; exposures in patients (TdP cases after intravenous administration) ([2]; prolonged intravenous administration, ref Sands et al., 1985, Conte et al., 1986, Cordes et al., 2005): 1 to 5 µM |
| CC(C)(Sc1cc(C(C)(C)C)c(O)c(C(C)(C)C)c1)Sc1cc(C(C)(C)C)c(O)c(C(C)(C)C)c1 [Probucol] | 2±2 | -4±4 | -3±7 | -4±6 | -3±10 | -1±2 | -6±4 | -3±3 | -8±3 | -2±5 | -10±2 | -7±2 | -2±3 | -7±4 | -5±4 | -3±1 | -7±4 | -4±4 | -12±3 | – | Imp (impedance), % change from baseline ([1]; 10 µM, 96h): -8±4% |
| CCN(CC)CCNC(=O)c1c(C)[nH]c(/C=C2\C(=O)Nc3ccc(F)cc32)c1C [Sunitinib] | 5±6 | -7±3 | -3±5 | -3±2 | -3±3 | 12±7 | -9±6 | -7±7 | -8±7 | -5±6 | – | – | – | – | – | – | – | – | – | 30 | Imp (impedance), % change from baseline ([1]; 0.03 µM, 2h): 5±4%; Imp (impedance), % change from baseline ([1]; 0.03 µM, 24h): -12±3%; Imp (impedance), % change from baseline ([1]; 0.03 µM, 48h): -8±6%; Imp (impedance), % change from baseline ([1]; 0.03 µM, 72h): -8±4%; Imp (impedance), % change from baseline ([1]; 0.03 µM, 96h): -4±4%; Imp (impedance), % change from baseline ([1]; 0.1 µM, 2h): 6±3%; Imp (impedance), % change from baseline ([1]; 0.1 µM, 24h): -10±4%; Imp (impedance), % change from baseline ([1]; 0.1 µM, 48h): -7±4%; Imp (impedance), % change from baseline ([1]; 0.1 µM, 72h): -5±3%; Imp (impedance), % change from baseline ([1]; 0.1 µM, 96h): -2±3%; effect on impedance [1, 3]: did not cause significant changes in the impedance signal |
